Source: the NIST ThermoML archive (doi:10.1016/j.jct.2005.03.012)
± gives the expanded uncertainty stated by the source.

Test: excess molar enthalpy (molar enthalpy of mixing); xn = mol fraction of the nth substance listed
Conditions: Liquid

CO [methanol] + O
excess molar enthalpy [kJ/mol]
Conditions	8500 kPa	10000 kPa
505.01 K, x1 = 0.2	–	0.353 ± 0.014
505.63 K, x1 = 0.6	–	0.412 ± 0.016
505.93 K, x1 = 0.3	0.315 ± 0.013	–
506.02 K, x1 = 0.2	0.258 ± 0.011	–
506.29 K, x1 = 0.4	0.308 ± 0.013	–
506.52 K, x1 = 0.2	–	0.346 ± 0.014
506.53 K, x1 = 0.4	–	0.452 ± 0.017
506.59 K, x1 = 0.1	0.155 ± 0.0079	–
506.7 K, x1 = 0.5	0.252 ± 0.011	–
507.3 K, x1 = 0.6	0.164 ± 0.0084	–
507.4 K, x1 = 0.8	–	0.214 ± 0.0097
507.5 K, x1 = 0.6	–	0.389 ± 0.015
507.82 K, x1 = 0.7	0.0686 ± 0.0069	–
507.86 K, x1 = 0.1	0.144 ± 0.0076	–
508.01 K, x1 = 0.2	0.222 ± 0.01	–
508.15 K, x1 = 0.1	0.143 ± 0.0076	–
508.15 K, x1 = 0.2	0.22 ± 0.0099	0.342 ± 0.014
508.15 K, x1 = 0.3	0.254 ± 0.011	–
508.15 K, x1 = 0.4	0.242 ± 0.011	0.43 ± 0.016
508.15 K, x1 = 0.5	0.19 ± 0.009	–
508.15 K, x1 = 0.6	0.121 ± 0.0075	0.371 ± 0.015
508.15 K, x1 = 0.7	0.0504 ± 0.007	–
508.15 K, x1 = 0.8	-0.0246 ± 0.0073	0.204 ± 0.0094
508.15 K, x1 = 0.9	-0.06 ± 0.0075	–
508.29 K, x1 = 0.8	-0.0349 ± 0.0075	–
508.45 K, x1 = 0.9	-0.0721 ± 0.0079	–
508.63 K, x1 = 0.8	–	0.198 ± 0.0097
508.68 K, x1 = 0.4	0.215 ± 0.0098	–
509.15 K, x1 = 0.3	0.216 ± 0.0098	–
509.29 K, x1 = 0.5	0.126 ± 0.007	–
509.71 K, x1 = 0.2	–	0.329 ± 0.013
509.71 K, x1 = 0.6	–	0.341 ± 0.014
509.71 K, x1 = 0.8	–	0.177 ± 0.0092
509.91 K, x1 = 0.1	0.125 ± 0.007	–
509.91 K, x1 = 0.2	0.181 ± 0.0087	–
509.91 K, x1 = 0.3	0.195 ± 0.0091	–
509.91 K, x1 = 0.4	0.161 ± 0.0081	–
509.91 K, x1 = 0.5	0.0925 ± 0.0061	–
509.91 K, x1 = 0.6	0.0115 ± 0.0053	–
509.91 K, x1 = 0.7	-0.068 ± 0.0073	–
509.91 K, x1 = 0.8	-0.136 ± 0.0095	–
509.91 K, x1 = 0.9	-0.155 ± 0.0099	–
510.17 K, x1 = 0.7	-0.0888 ± 0.0076	–
510.19 K, x1 = 0.3	–	0.38 ± 0.027
510.22 K, x1 = 0.6	0.0063 ± 0.005	–
510.22 K, x1 = 0.8	-0.147 ± 0.01	–
510.43 K, x1 = 0.4	–	0.395 ± 0.031
510.63 K, x1 = 0.2	–	0.307 ± 0.019
510.71 K, x1 = 0.9	-0.175 ± 0.011	–
510.88 K, x1 = 0.5	–	0.367 ± 0.032
511.51 K, x1 = 0.1	–	0.178 ± 0.011
511.67 K, x1 = 0.6	–	0.284 ± 0.028
512.18 K, x1 = 0.7	–	0.203 ± 0.022
512.47 K, x1 = 0.5	–	0.321 ± 0.024
512.6 K, x1 = 0.4	–	0.347 ± 0.022
512.67 K, x1 = 0.8	–	0.107 ± 0.013
512.9 K, x1 = 0.3	–	0.332 ± 0.019
512.9 K, x1 = 0.9	–	0.024 ± 0.0053
513.15 K, x1 = 0.1	0.0461 ± 0.023	0.166 ± 0.0084
513.15 K, x1 = 0.2	0.0327 ± 0.024	0.277 ± 0.012
513.15 K, x1 = 0.3	-0.05 ± 0.024	0.326 ± 0.013
513.15 K, x1 = 0.4	-0.123 ± 0.025	0.335 ± 0.013
513.15 K, x1 = 0.5	-0.233 ± 0.029	0.304 ± 0.013
513.15 K, x1 = 0.6	-0.388 ± 0.035	0.25 ± 0.011
513.15 K, x1 = 0.7	-0.586 ± 0.042	0.171 ± 0.009
513.15 K, x1 = 0.8	-0.687 ± 0.046	0.0955 ± 0.0072
513.15 K, x1 = 0.9	-0.647 ± 0.042	0.0238 ± 0.0061
513.61 K, x1 = 0.2	–	0.268 ± 0.017
513.87 K, x1 = 0.1	–	0.161 ± 0.0091
513.88 K, x1 = 0.6	–	0.208 ± 0.02
514.32 K, x1 = 0.1	-0.0376 ± 0.05	–
514.32 K, x1 = 0.2	-0.168 ± 0.053	–
514.32 K, x1 = 0.3	-0.28 ± 0.059	–
514.32 K, x1 = 0.4	-0.493 ± 0.074	–
514.32 K, x1 = 0.5	-0.668 ± 0.08	–
514.32 K, x1 = 0.6	-0.764 ± 0.083	–
514.32 K, x1 = 0.7	-0.895 ± 0.088	–
514.32 K, x1 = 0.8	-1.03 ± 0.09	–
514.32 K, x1 = 0.9	-1.17 ± 0.086	–
514.44 K, x1 = 0.9	–	-0.0091 ± 0.004
514.48 K, x1 = 0.7	–	0.118 ± 0.013
514.52 K, x1 = 0.8	–	0.0446 ± 0.0074
514.98 K, x1 = 0.1	–	0.148 ± 0.008
514.98 K, x1 = 0.2	–	0.245 ± 0.011
514.98 K, x1 = 0.3	–	0.283 ± 0.012
514.98 K, x1 = 0.4	–	0.283 ± 0.012
514.98 K, x1 = 0.5	–	0.244 ± 0.011
514.98 K, x1 = 0.6	–	0.172 ± 0.0091
514.98 K, x1 = 0.7	–	0.093 ± 0.007
514.98 K, x1 = 0.8	–	0.0316 ± 0.0058
514.98 K, x1 = 0.9	–	-0.013 ± 0.0056
